Drawing on a melting point compilation (Tetko et al.; mined from patent text by program, amines drawn as free bases though some values may be those of a salt), this text covers melting point for 35 compounds.

The term melting point denotes the temperature, or range, at which the solid turns liquid. As to `Nc1ccc2c(c1)Cc1c(-c3ccccc3)n[nH]c1-2`, the melting point was 228 to 230 °C.

Regarding `O=C(CCC(=O)N1Cc2c(cc3ccc4c(c3c2-c2ccc3c(c2)OCO3)OCO4)C1=O)OCc1ccccc1`, the melting point is 128 to 129 °C.

Compound `CSc1ncc(Cc2ccc(Cl)cc2)c(=O)[nH]1` returned a melting point of 193 to 194 °C.

With `CCCCCn1c2ccc(C(=O)O)cc2c2ccc(SC)cc21`, the melting point lay in the range of 211 to 212 °C.

Regarding `O=C(O)C(=O)C=Cc1ccccc1F`, the melting point is 100 to 102 °C.

On to `CC(=O)Oc1ccc2c(c1)CC=C1C2CCC2(C)C=CCC12` (stereo not given), for which the melting point fell in the range of 77 to 80 °C.

Consider `OCCn1cc(-c2ccc3nnn(Cc4c(F)ccc(F)c4Cl)c3n2)cn1`, for which the melting point lay within 143 to 145 °C.

Compound `C[C@H](CN(C(=O)C1(C)C2CCC1CC2)c1ccccn1)N1CCN(c2cccc3[nH]ccc23)CC1` (stereo not given in full) yielded a melting point of 236 to 238 °C.

With `Cc1nccn1CCCCC(=O)NCc1ccc(Cl)cc1`, the melting point lay in the range of 72 to 75 °C.

On to `COC1=CC(=NC2CCCCC2)c2ccccc2C1=O`, for which the melting point was in the range of 145 to 147 °C.

`CCOC(=O)C(C#N)C1(C#N)C(=O)N(Cc2ccc(Br)cc2F)c2c(C)cccc21` (stereo not given) registered a melting point of 130 to 132 °C.

`CCOC(=O)c1cc2c(C)ccc(N(C)S(=O)(=O)c3cccnc3Cl)c2[nH]1` registered a melting point of 158 to 159 °C.

Compound `CCc1cc(C)cc(CC)c1C(C(=O)NC)C(=O)NC` displayed a melting point of 98 to 100 °C.

`Cc1noc(NC(=O)N2CCN(c3nc(-c4ccc(F)cc4F)cs3)CC2)c1C` returned a melting point of 166 to 167 °C.

`Cn1c(COc2ccc(CC3SC(=O)NC3=O)cc2)nc2ccc(Oc3cccc(NC(=O)NC45CC6CC(CC(C6)C4)C5)c3)cc21` (stereo not given) registered a melting point of 227 to 231 °C.

For the compound `Cc1nc(N)c2nc(C)n(CCOC/C=C/c3ccccc3)c2c1C`, the melting point was 144 to 145 °C.

As to `O=C(Cc1ccnc2c1NC(=O)c1cccnc1N2C1CC1)c1ccccc1`, the melting point was 195 to 197 °C.

The compound `CC(C)(C)OC(=O)N1CCC(C(=O)Nc2ccccc2Oc2ccc(Cl)cc2)CC1` registered a melting point of 97 to 99 °C.

For the compound `C[C@@H](N1CC(=O)N(c2ccc(OCC(F)(F)C(F)F)cc2)CC1=O)[C@@]1(c2ccc(F)cc2F)CO1`, the melting point lay within 155 to 156 °C.

Take `N#Cc1cccc(C=CC=O)c1`: the melting point was determined as 100 °C.

The compound `COC(=O)C1CC(=O)n2c3c(c4cc(F)ccc42)CCNC31` (stereo not given) yielded a melting point of 172 °C.

Consider `CCCOc1ccnc2[nH]ccc12`, for which the melting point fell in the range of 189 to 191 °C.

As to `Oc1ccc(Br)cc1-c1ccc2nonc2c1`, the melting point fell in the range of 179 to 181 °C.

In the case of `Nc1ncccc1CCc1ccccc1`, the melting point was in the range of 106 to 108 °C.

As to `N#CNc1ccc(OCc2ccccc2)cc1`, the melting point was found to be 105 °C.

For `C=CC(=O)Oc1c(C(C)c2cc(C(C)(C)CC)cc(C(C)(C)CC)c2O)cc(C(C)(C)CC)cc1C(C)(C)CC` (stereo not given), the melting point lay in the range of 119 to 121 °C.

For the compound `Cc1cc(-c2cc(C(F)(F)F)n3ncc(C(=O)Nc4cccc(S(N)(=O)=O)c4)c3n2)ccc1Cl`, the melting point stood at 275 °C.

The compound `CC(=O)OCCCCn1cnc2c(Cl)nc(Nc3ccccc3)nc21` returned a melting point of 195 to 197 °C.

Consider `CC(=O)C(C(=O)c1ccccc1)N(C)C` (stereo not given), for which the melting point fell in the range of 72 to 74 °C.

In turn, `CCOP(C)(=O)CC(CCc1ccccc1)NS(=O)(=O)c1ccc(C)cc1` (stereo not given) yielded a melting point of 107 to 108 °C.

For the compound `CSc1nc([C@@H]2C[C@H]2c2nc3ccccc3n2C)cc(-n2nc(C)nc2C)n1` (relative stereo), the melting point lay within 157 to 159 °C.

With `Cc1ccccc1C(=S)NC(=O)Nc1ccc(Cl)cc1`, the melting point amounted to 211 °C.

As to `COc1cc([N+](=O)[O-])ccc1-c1cccc(C(=O)OC(C)(C)C)c1`, the melting point fell in the range of 88 to 88.5 °C.

In turn, `Nc1cc(F)ccc1NC(c1ccccc1)c1ccccc1` came in with a melting point of 120 °C.

Compound `CCOc1ccc(O)c(C(C)(C)C)c1` displayed a melting point of 96 to 98 °C.
